Assay results taken from patent publication US10941379B2, “Microbial system for biosynthesis of natural and engineered products coupled to in situ extraction in supercritical CO2” (Massachusetts Institute of Technology, priority 2016, dated 2021).

Experiments:
Format in all cases: cell-based, Bacillus megaterium
[1] = system: B. megaterium QM B1551; test: Biolog GenIII sole carbon source growth; details: no metals added; Table 10
Protocol: (§1) Plates were incubated at 37° C. on a plate shaker at 200 rpm and assayed for growth using NADH-dependent colorimetric changes measured by OD490 on a microplate reader (BioTek Synergy 2; BioTek; Winooski, Vt.).

[2] = system: B. megaterium SR7; test: Biolog GenIII sole carbon source growth; details: for Growth on Biolog sole carbon source, SR7: no metals added, Table 10; for Growth in carbon source Biolog plate, +Metals: trace metals-amended plate; for Growth in carbon source Biolog plate, +Metals / Growth in carbon source Biolog plate, I / Growth in carbon source Biolog plate, II: Table 11; for Growth in carbon source Biolog plate, I: unamended plate trial I; for Growth in carbon source Biolog plate, II: unamended plate trial II
Protocol: as §1

[3] = system: B. megaterium DSM319; test: Biolog GenIII sole carbon source growth; details: no metals added; Table 10
Protocol: as §1

[4] = system: B. megaterium SR7; test: SR7 antibiotic sensitivity in LB (OD600 vs unamended control); details: for % Control: (OD600 AB/OD600 Control)*100 in LB, average n = 2, 24 hours, 37° C.; for Sensitivity: LB
Protocol: To help guide optimization of growth conditions for strain SR7, physiological tests were conducted under aerobic conditions. To determine tolerance for pH, salinity and bicarbonate, high throughput culturing was done in 96 well plates and scored for growth by OD600 using a microplate reader (BioTek Synergy 2; BioTek; Winooski, Vt.). 200 uL LB solutions/well were inoculated in triplicate with 10^4 spores/ml (based on SR7 spore stock filter counts) and incubated on a plate rocker at 37° C. with unamended positive and cell-free negative LB controls. Tests for pH tolerance (pH 2-10) were conducted in LB medium amended with HCl or NaOH. The effect of salinity and bicarbonate on growth was determined by adding NaCl (1-10%) and NaHCO3 (0.1-0.5M), respectively, to LB media. Optimal SR7 growth temperature was tested by inoculating 10^4 spores/ml in 5 ml of LB in triplicate at temperatures of 9-55° C. Cultures and cell-free negative controls were incubated without shaking, with subsamples taken for periodic OD600 measurements. SR7 antibiotic sensitivity was determined by supplementing 5 ml LB with ampicillin (5-50 μg/ml), chloramphenicol (3.5-35 μg/ml), kanamycin (5-50 μg/ml), spectinomycin (10-100 μg/ml), streptomycin (10-100 μg/ml), or tetracycline (1.5-15 μg/ml).

[5] = system: B. megaterium SR7; test: Biolog GenIII Microplate growth sensitivity assay; details: for % Control: (OD490 AB/OD490 Control)*100 for Biolog, average n = 2, Biolog does not publish concentrations; for Sensitivity: Biolog, concentration not published; for SR7 growth inhibition in Biolog assays: result in words; for sensitivity: key: S = sensitive; R = resistant
Protocol: as §1

Row | Molecule | Growth on Biolog sole carbon source, QM B1551 [1] | Growth on Biolog sole carbon source, SR7 [2] | Growth in carbon source Biolog plate, +Metals [2] | Growth in carbon source Biolog plate, I [2] | Growth in carbon source Biolog plate, II [2] | Growth on Biolog sole carbon source, DSM319 [3] | % Control [5] | Sensitivity [5] | further results
1 | CC(O)CC(=O)O (racemic) [β-Hydroxy-D,L-Butyric Acid] | +++ | + | + | + | + | + |  |  | 
2 | CC1(C)S[C@@H]2[C@H](NC(=O)[C@H](N)c3ccccc3)C(=O)N2[C@H]1C(=O)O [Ampicilin] |  |  |  |  |  |  |  |  | % Control ([4]; 50 ug/mL): 8%; Sensitivity ([4]; 50 ug/mL): S
3 | C[C@H]1[C@H](NC(=O)/C(=N\OC(C)(C)C(=O)O)c2csc(N)n2)C(=O)N1S(=O)(=O)O [Aztreonam] |  |  |  |  |  |  | 10% | S | 
4 | O=C(O)CC(Br)C(=O)O (centres unmarked) [Bromo-Succinic Acid] | + | + | + | + | + | +++ |  |  | 
5 | O=C(N[C@H](CO)[C@H](O)c1ccc([N+](=O)[O-])cc1)C(Cl)Cl [Chloramphenicol] |  |  |  |  |  |  |  |  | % Control ([4]; 35 ug/mL): 9%; Sensitivity ([4]; 35 ug/mL): S
6 | O=C(O)[C@H](O)[C@@H](O)[C@H](O)[C@H](O)CO [D-Gluconic Acid] | + | + | +++ | + | + | +++ |  |  | 
7 | OC[C@@H](O)[C@@H](O)[C@H](O)[C@H](O)CO [D-Mannitol] | + | + | + | + | + | +++ |  |  | 
8 | O=C(O)[C@@H](O)[C@@H](O)[C@H](O)[C@@H](O)C(=O)O [D-Saccharic Acid] | +++ | − | − | − | + | − |  |  | 
9 | N[C@H](CO)C(=O)O [D-Serine, reference compound] |  |  | − | − | − |  | 10% | S | SR7 growth inhibition in Biolog assays [5]: inhibited
10 | CC(=O)O[C@H]1C[C@@]2(C)[C@@H](C[C@@H](O)[C@H]3[C@@]4(C)CC[C@@H](O)[C@@H](C)[C@@H]4CC[C@@]32C)/C1=C(\CCC=C(C)C)C(=O)O [Fusidic Acid] |  |  |  |  |  |  | 9% | S | 
11 | NC[C@H]1O[C@H](O[C@H]2[C@H](O)[C@@H](O[C@H]3O[C@H](CO)[C@@H](O)[C@H](N)[C@H]3O)[C@H](N)C[C@@H]2N)[C@H](O)[C@@H](O)[C@@H]1O [Kanamycin] |  |  |  |  |  |  |  |  | % Control ([4]; 5 ug/mL): 9%; Sensitivity ([4]; 5 ug/mL): S
12 | N[C@@H](CC(=O)O)C(=O)O [L-Aspartic Acid] | + | + | +++ | + | + | +++ |  |  | 
13 | N[C@@H](CCC(=O)O)C(=O)O [L-Glutamic Acid] | +++ | + | +++ | + | + | +++ |  |  | 
14 | N[C@@H](Cc1c[nH]cn1)C(=O)O [L-Histidine] | + | + | + | + | + | +++ |  |  | 
15 | C[C@H](O)C(=O)O [L-Lactic Acid] | +++ | + | + | + | + | +++ |  |  | 
16 | O=C(O)C[C@H](O)C(=O)O [L-Malic Acid] | +++ | +++ | + |  | +++ | +++ |  |  | 
17 | CCC[C@@H]1C[C@@H](C(=O)N[C@@H]([C@H]2O[C@H](SC)[C@H](O)[C@@H](O)[C@H]2O)[C@@H](C)O)N(C)C1 [Lincomycin] |  |  |  |  |  |  | 11% | S | 
18 | CN(C)c1ccc(O)c2c1C[C@H]1C[C@H]3[C@H](N(C)C)C(O)=C(C(N)=O)C(=O)[C@@]3(O)C(O)=C1C2=O [Minocycline] |  |  |  |  |  |  |  | S | 
19 | CC(=O)N[C@H]1C(O)O[C@H](CO)[C@@H](O)[C@@H]1O (stereo partly drawn) [N-Acetyl-D-Glucosamine] | + | + |  | + | + | +++ |  |  | 
20 | CCn1cc(C(=O)O)c(=O)c2ccc(C)nc21 [Nalidixic Acid] |  |  |  |  |  |  | 14% | S | 
21 | CCCCC(CC)CCC(CC(C)C)OS(=O)(=O)[O-].[Na+] (centres unmarked) [Niaproof 4] |  |  |  |  |  |  | 9% | S | SR7 growth inhibition in Biolog assays [5]: inhibited
22 | CO[C@H]1/C=C/O[C@@]2(C)Oc3c(C)c([O-])c4c(O)c(cc(O)c4c3C2=O)NC(=O)/C(C)=C\C=C\[C@H](C)[C@H](O)[C@@H](C)[C@@H](O)[C@@H](C)[C@H](OC(C)=O)[C@@H]1C.[Na+] [Rifamycin SV] |  |  |  |  |  |  | 11% | S | 
23 | CN[C@@H]1[C@H](O)[C@H](NC)[C@H]2O[C@@]3(O)C(=O)C[C@@H](C)O[C@H]3O[C@@H]2[C@H]1O [Spectinomycin] |  |  |  |  |  |  |  |  | % Control ([4]; 100 ug/mL): 47%; Sensitivity ([4]; 100 ug/mL): S/R; SR7 sensitivity to antibiotics ([4]; result in words, summary of Table 9): intermediate sensitivity
24 | [H]/N=C(/N)N[C@H]1[C@H](O)[C@@H](O)[C@H](O[C@@H]2O[C@@H](C)[C@](O)(C=O)[C@H]2O[C@@H]2O[C@@H](CO)[C@H](O)[C@@H](O)[C@@H]2NC)[C@@H](N/C(N)=N\[H])[C@@H]1O [Streptomycin] |  |  |  |  |  |  |  |  | % Control ([4]; 10 ug/mL): 10%; Sensitivity ([4]; 10 ug/mL): S
25 | OC[C@H]1O[C@@](CO)(O[C@H]2O[C@H](CO)[C@@H](O)[C@H](O)[C@H]2O)[C@@H](O)[C@@H]1O [Sucrose] | + | − | + | − | + | +++ |  |  | 
26 | CN(C)[C@@H]1C(O)=C(C(N)=O)C(=O)[C@@]2(O)C(O)=C3C(=O)c4c(O)cccc4[C@@](C)(O)[C@H]3C[C@@H]12 [Tetracycline] |  |  |  |  |  |  |  |  | % Control ([4]; 1.5 ug/mL): 11%; Sensitivity ([4]; 1.5 ug/mL): S
27 | CO[C@H]1C[C@H](O[C@H]2[C@H](C)[C@@H](O[C@@H]3O[C@H](C)C[C@H](N(C)C)[C@H]3OC(C)=O)[C@@H](C)C[C@@]3(CO3)C(=O)[C@H](C)[C@@H](OC(C)=O)[C@@H](C)[C@@H](C)OC(=O)[C@@H]2C)O[C@@H](C)[C@@H]1OC(C)=O [Troleandomycin] |  |  |  |  |  |  | 9% | S | 
28 | CN[C@H](CC(C)C)C(=O)N[C@H]1C(=O)N[C@@H](CC(N)=O)C(=O)N[C@H]2C(=O)N[C@H]3C(=O)N[C@H](C(=O)N[C@H](C(=O)O)c4cc(O)cc(O)c4-c4cc3ccc4O)[C@H](O)c3ccc(c(Cl)c3)Oc3cc2cc(c3O[C@@H]2O[C@H](CO)[C@@H](O)[C@H](O)[C@H]2O[C@H]2C[C@](C)(N)[C@H](O)[C@H](C)O2)Oc2ccc(cc2Cl)[C@H]1O [Vancomycin] |  |  |  |  |  |  | 10% | S | 
29 | Gentiobiose |  |  | + | + | + |  |  |  | 
30 | Tween 40 |  |  | − | − | + |  |  |  | 
